Source: publication PMC10408569, “Recruitment of hexahydroquinoline as anticancer scaffold targeting inhibition of wild and mutants EGFR (EGFR^WT, EGFR^T790M, and EGFR^L858R)” (Journal of Enzyme Inhibition and Medicinal Chemistry, 2023)

Tests used:
EGFR^L858R = EGFR^L858R (Homo sapiens, UniProt P00533, L858R); test: biochemical
SK-MEL-28 = test: NCI-60 anticancer screening (SRB); assay type: cell-based; conditions: Homo sapiens; for inhibition at 10 µM: SK-MEL-28, melanoma, one dose 10 μM, read-out: Growth Inhibition Percentage (GI %)
SF-268 = test: NCI-60 anticancer screening (SRB); assay type: cell-based; conditions: Homo sapiens; for inhibition at 10 µM: SF-268, CNS cancer, one dose 10 μM, read-out: Growth Inhibition Percentage (GI %)
LOX IMVI = test: NCI-60 anticancer screening (SRB); assay type: cell-based; conditions: Homo sapiens; for inhibition at 10 µM: melanoma, one dose 10 μM, read-out: Growth Inhibition Percentage (GI %)
RPMI-8226 = test: NCI-60 anticancer screening (SRB); assay type: cell-based; conditions: Homo sapiens; for inhibition at 10 µM: RPMI-8226, leukemia, one dose 10 μM, read-out: Growth Inhibition Percentage (GI %)
SW-620 = test: NCI-60 anticancer screening (SRB); assay type: cell-based; conditions: Homo sapiens; for inhibition at 10 µM: SW-620, colon cancer, one dose 10 μM, read-out: Growth Inhibition Percentage (GI %)
SF-539 = test: NCI-60 anticancer screening (SRB); assay type: cell-based; conditions: Homo sapiens; for inhibition at 10 µM: SF-539, CNS cancer, one dose 10 μM, read-out: Growth Inhibition Percentage (GI %)
NCI-H460 = test: NCI-60 anticancer screening (SRB); assay type: cell-based; conditions: Homo sapiens; for inhibition at 10 µM: NCI-H460, NSC lung cancer, one dose 10 μM, read-out: Growth Inhibition Percentage (GI %)
RXF 393 = test: NCI-60 anticancer screening (SRB); assay type: cell-based; conditions: Homo sapiens; for inhibition at 10 µM: RXF 393, renal cancer, one dose 10 μM, read-out: Growth Inhibition Percentage (GI %)
HOP-92 = test: NCI-60 anticancer screening (SRB); assay type: cell-based; conditions: Homo sapiens; for inhibition at 10 µM: HOP-92, NSC lung cancer, one dose 10 μM, read-out: Growth Inhibition Percentage (GI %)
OVCAR-4 = test: NCI-60 anticancer screening (SRB); assay type: cell-based; conditions: Homo sapiens; for inhibition at 10 µM: OVCAR-4, ovarian cancer, one dose 10 μM, read-out: Growth Inhibition Percentage (GI %)
EGFR^WT = EGFR^WT (Homo sapiens, UniProt P00533); test: EGFR kinase inhibitory assay (HTRF)
SN 12C = test: NCI-60 anticancer screening (SRB); assay type: cell-based; conditions: Homo sapiens, SN12C; for inhibition at 10 µM: SN 12C, renal cancer, one dose 10 μM, read-out: Growth Inhibition Percentage (GI %)
HCT-116 = test: NCI-60 anticancer screening (SRB); assay type: cell-based; conditions: Homo sapiens; for inhibition at 10 µM: HCT-116, colon cancer, one dose 10 μM, read-out: Growth Inhibition Percentage (GI %)
CCRF-CEM = test: NCI-60 anticancer screening (SRB); assay type: cell-based; conditions: Homo sapiens; for inhibition at 10 µM: leukemia, one dose 10 μM, read-out: Growth Inhibition Percentage (GI %)
TK-10 = test: NCI-60 anticancer screening (SRB); assay type: cell-based; conditions: Homo sapiens; for inhibition at 10 µM: TK-10, renal cancer, one dose 10 μM, read-out: Growth Inhibition Percentage (GI %)
SK-MEL-5 = test: NCI-60 anticancer screening (SRB); assay type: cell-based; conditions: Homo sapiens; for inhibition at 10 µM: SK-MEL-5, melanoma, one dose 10 μM, read-out: Growth Inhibition Percentage (GI %)
MCF7 = test: NCI-60 anticancer screening (SRB); assay type: cell-based; conditions: Homo sapiens; for inhibition at 10 µM: MCF7, breast cancer, one dose 10 μM, read-out: Growth Inhibition Percentage (GI %)
SR = test: NCI-60 anticancer screening (SRB); assay type: cell-based; conditions: Homo sapiens; for inhibition at 10 µM: leukemia, one dose 10 μM, read-out: Growth Inhibition Percentage (GI %)
T-47D = test: NCI-60 anticancer screening (SRB); assay type: cell-based; conditions: Homo sapiens, T47D; for inhibition at 10 µM: breast cancer, one dose 10 μM, read-out: Growth Inhibition Percentage (GI %)
M14 = test: NCI-60 anticancer screening (SRB); assay type: cell-based; conditions: Homo sapiens; for inhibition at 10 µM: M14, melanoma, one dose 10 μM, read-out: Growth Inhibition Percentage (GI %)
EGFR^T790M = EGFR^T790M (Homo sapiens, UniProt P00533, T790M); test: biochemical
SF-295 = test: NCI-60 anticancer screening (SRB); assay type: cell-based; conditions: Homo sapiens; for inhibition at 10 µM: SF-295, CNS cancer, one dose 10 μM, read-out: Growth Inhibition Percentage (GI %)
K-562 = test: NCI-60 anticancer screening (SRB); assay type: cell-based; conditions: Homo sapiens, K562; for inhibition at 10 µM: K-562, leukemia, one dose 10 μM, read-out: Growth Inhibition Percentage (GI %)
SK-OV-3 = test: NCI-60 anticancer screening (SRB); assay type: cell-based; conditions: Homo sapiens; for inhibition at 10 µM: SK-OV-3, ovarian cancer, one dose 10 μM, read-out: Growth Inhibition Percentage (GI %)
[1] = Cytotoxic effects in vitro on normal lung cells; assay type: cell-based; conditions: IMR-90 normal lung fibroblast cells; human normal lung fibroblast (IMR-90); read-out: IC50, cytotoxicity towards human normal cells IMR-90
ACHN = test: NCI-60 anticancer screening (SRB); assay type: cell-based; conditions: Homo sapiens; for inhibition at 10 µM: renal cancer, one dose 10 μM, read-out: Growth Inhibition Percentage (GI %)
A498 = test: NCI-60 anticancer screening (SRB); assay type: cell-based; conditions: Homo sapiens; for inhibition at 10 µM: A498, renal cancer, one dose 10 μM, read-out: Growth Inhibition Percentage (GI %)
HT29 = test: NCI-60 anticancer screening (SRB); assay type: cell-based; conditions: Homo sapiens, HT-29; for inhibition at 10 µM: HT29, colon cancer, one dose 10 μM, read-out: Growth Inhibition Percentage (GI %)
HS 578T = test: NCI-60 anticancer screening (SRB); assay type: cell-based; conditions: Homo sapiens; for inhibition at 10 µM: HS 578T, breast cancer, one dose 10 μM, read-out: Growth Inhibition Percentage (GI %)
PC-3 = test: NCI-60 anticancer screening (SRB); assay type: cell-based; conditions: Homo sapiens; for inhibition at 10 µM: PC-3, prostate cancer, one dose 10 μM, read-out: Growth Inhibition Percentage (GI %)
UACC-62 = test: NCI-60 anticancer screening (SRB); assay type: cell-based; conditions: Homo sapiens; for inhibition at 10 µM: UACC-62, melanoma, one dose 10 μM, read-out: Growth Inhibition Percentage (GI %)

Sequence of EGFR^L858R (P00533 25-1210 L858R): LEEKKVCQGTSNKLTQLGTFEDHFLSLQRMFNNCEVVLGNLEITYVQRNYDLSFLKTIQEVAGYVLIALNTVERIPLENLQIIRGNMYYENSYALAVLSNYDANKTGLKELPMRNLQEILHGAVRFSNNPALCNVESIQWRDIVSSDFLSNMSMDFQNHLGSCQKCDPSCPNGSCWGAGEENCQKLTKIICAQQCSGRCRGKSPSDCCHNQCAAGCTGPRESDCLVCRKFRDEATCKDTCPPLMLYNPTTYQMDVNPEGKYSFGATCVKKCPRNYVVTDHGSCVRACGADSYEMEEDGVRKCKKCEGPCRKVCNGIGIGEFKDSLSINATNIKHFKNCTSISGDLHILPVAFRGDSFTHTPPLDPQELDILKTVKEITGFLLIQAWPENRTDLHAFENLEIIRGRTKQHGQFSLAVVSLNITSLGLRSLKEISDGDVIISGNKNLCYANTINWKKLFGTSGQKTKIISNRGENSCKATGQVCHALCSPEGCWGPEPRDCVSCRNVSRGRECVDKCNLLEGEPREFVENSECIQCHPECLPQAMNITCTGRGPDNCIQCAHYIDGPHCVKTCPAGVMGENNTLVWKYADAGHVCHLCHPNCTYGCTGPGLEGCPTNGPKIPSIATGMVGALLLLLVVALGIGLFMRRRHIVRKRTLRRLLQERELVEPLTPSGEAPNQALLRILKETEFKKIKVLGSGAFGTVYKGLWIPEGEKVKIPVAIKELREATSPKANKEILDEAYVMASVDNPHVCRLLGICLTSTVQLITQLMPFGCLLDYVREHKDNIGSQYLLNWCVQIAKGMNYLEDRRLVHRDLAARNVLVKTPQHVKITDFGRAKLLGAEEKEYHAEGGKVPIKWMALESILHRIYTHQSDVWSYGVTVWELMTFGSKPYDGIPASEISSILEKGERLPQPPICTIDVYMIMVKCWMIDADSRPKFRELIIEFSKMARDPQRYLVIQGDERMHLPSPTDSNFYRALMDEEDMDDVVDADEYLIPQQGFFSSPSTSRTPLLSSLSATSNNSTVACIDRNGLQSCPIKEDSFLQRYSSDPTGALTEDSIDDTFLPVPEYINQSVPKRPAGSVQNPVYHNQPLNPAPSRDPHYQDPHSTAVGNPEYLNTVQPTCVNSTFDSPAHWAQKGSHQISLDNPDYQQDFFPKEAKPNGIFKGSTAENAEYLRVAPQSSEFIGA
Sequence of EGFR^T790M (P00533 25-1210 T790M): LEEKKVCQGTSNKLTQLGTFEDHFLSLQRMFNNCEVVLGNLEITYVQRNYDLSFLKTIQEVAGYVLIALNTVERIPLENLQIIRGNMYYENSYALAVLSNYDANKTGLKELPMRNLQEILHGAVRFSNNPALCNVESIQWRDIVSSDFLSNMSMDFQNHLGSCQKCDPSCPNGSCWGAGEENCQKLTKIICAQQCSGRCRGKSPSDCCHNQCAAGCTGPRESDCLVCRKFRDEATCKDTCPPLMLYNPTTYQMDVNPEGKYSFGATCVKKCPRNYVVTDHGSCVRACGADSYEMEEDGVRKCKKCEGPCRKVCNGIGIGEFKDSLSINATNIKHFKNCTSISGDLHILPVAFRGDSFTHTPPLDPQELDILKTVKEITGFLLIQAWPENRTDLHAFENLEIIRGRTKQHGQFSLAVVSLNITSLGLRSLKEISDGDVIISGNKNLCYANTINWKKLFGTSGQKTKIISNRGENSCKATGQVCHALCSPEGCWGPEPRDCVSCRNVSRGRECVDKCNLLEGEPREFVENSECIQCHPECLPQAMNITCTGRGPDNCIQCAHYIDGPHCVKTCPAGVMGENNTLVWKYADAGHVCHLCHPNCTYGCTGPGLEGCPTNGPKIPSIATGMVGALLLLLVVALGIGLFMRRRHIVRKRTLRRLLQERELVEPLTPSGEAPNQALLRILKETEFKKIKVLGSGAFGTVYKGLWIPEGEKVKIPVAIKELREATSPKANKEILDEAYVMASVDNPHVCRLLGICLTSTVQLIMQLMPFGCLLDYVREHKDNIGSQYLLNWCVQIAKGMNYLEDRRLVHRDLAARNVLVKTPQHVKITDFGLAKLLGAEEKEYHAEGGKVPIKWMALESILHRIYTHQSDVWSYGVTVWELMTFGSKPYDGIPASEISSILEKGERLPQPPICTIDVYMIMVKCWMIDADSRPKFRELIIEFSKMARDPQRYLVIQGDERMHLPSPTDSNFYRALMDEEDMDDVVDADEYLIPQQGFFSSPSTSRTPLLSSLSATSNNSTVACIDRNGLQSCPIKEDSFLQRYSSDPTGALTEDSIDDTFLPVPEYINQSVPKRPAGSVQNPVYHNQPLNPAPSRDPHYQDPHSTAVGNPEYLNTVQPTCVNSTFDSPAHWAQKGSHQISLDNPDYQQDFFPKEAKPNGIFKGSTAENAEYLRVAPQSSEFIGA
Sequence of EGFR^WT (P00533 25-1210): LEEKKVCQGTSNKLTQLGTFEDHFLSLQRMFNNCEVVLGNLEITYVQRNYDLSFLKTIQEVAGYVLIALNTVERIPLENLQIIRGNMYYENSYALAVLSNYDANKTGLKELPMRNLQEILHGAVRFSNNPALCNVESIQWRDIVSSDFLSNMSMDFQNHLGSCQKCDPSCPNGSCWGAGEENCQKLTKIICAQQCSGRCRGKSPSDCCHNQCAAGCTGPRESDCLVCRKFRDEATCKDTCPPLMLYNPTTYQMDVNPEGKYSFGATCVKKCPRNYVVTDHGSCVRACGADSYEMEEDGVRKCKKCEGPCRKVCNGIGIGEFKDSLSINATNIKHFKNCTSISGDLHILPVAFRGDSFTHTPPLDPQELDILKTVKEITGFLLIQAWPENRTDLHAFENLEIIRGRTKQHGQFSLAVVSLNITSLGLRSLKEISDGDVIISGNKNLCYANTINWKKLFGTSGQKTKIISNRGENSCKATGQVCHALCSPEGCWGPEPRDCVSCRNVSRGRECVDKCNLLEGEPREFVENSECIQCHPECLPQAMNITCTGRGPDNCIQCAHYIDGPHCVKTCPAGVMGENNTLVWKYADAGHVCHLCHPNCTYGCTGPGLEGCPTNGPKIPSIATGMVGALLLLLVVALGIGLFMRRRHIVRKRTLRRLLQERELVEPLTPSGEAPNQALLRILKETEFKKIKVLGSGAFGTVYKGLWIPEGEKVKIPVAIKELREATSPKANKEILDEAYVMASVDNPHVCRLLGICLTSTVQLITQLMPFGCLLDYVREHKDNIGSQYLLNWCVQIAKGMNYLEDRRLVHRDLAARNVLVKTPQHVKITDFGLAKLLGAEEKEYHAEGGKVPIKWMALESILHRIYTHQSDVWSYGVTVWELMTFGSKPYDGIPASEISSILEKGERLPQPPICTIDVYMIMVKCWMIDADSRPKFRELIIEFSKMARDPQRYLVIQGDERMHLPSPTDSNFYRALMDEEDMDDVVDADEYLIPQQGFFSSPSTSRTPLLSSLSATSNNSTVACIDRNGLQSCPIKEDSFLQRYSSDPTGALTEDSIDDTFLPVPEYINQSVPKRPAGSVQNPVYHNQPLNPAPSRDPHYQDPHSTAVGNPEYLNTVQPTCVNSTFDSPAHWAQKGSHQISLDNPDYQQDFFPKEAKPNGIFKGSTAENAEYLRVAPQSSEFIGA

CCOC(=O)C1=C(N)N(c2ccccc2)C2=C(C(=O)CC(C)(C)C2)C1c1ccc(Cl)cc1Cl (racemic) [10c, (±)-Ethyl 2-amino-4–(2,4-dichlorophenyl)-7,7-dimethyl-5-oxo-1-phenyl-1,4,5,6,7,8-hexahydroquinoline-3-carboxylate]
IC50 (EGFR^L858R): 623 ± 5 nM
inhibition at 10 µM (SK-MEL-28): 49%
GI50 (SK-MEL-28; SK-MEL-28, five doses 0.01-100 µM, 48 h): 6670 nM
inhibition at 10 µM (SF-268): 48%
GI50 (SF-268; SF-268, five doses 0.01-100 µM, 48 h): 5320 nM
GI50 (LOX IMVI; five doses 0.01-100 µM, 48 h): 3240 nM
inhibition at 10 µM (LOX IMVI): < 10%
inhibition at 10 µM (RPMI-8226): 92%
GI50 (RPMI-8226; RPMI-8226, five doses 0.01-100 µM, 48 h): 7070 nM
inhibition at 10 µM (SW-620): < 10%
GI50 (SW-620; SW-620, five doses 0.01-100 µM, 48 h): 2900 nM
inhibition at 10 µM (SF-539): 67%
GI50 (SF-539; SF-539, five doses 0.01-100 µM, 48 h): 3780 nM
inhibition at 10 µM (NCI-H460): 82%
GI50 (NCI-H460; NCI-H460, five doses 0.01-100 µM, 48 h): 1390 nM
inhibition at 10 µM (RXF 393): 79%
GI50 (RXF 393; RXF 393, five doses 0.01-100 µM, 48 h): 1380 nM
inhibition at 10 µM (HOP-92): 100%
GI50 (HOP-92; HOP-92, five doses 0.01-100 µM, 48 h): 3890 nM
inhibition at 10 µM (OVCAR-4): 75%
GI50 (OVCAR-4; OVCAR-4, five doses 0.01-100 µM, 48 h): 2830 nM
IC50 (EGFR^WT): 148 ± 40 nM
inhibition at 10 µM (SN 12C): 79%
GI50 (SN 12C; SN 12 C, five doses 0.01-100 µM, 48 h): 3080 nM
inhibition at 10 µM (HCT-116): 86%
GI50 (HCT-116; HCT-116, five doses 0.01-100 µM, 48 h): 7890 nM
GI50 (CCRF-CEM; five doses 0.01-100 µM, 48 h): 3100 nM
inhibition at 10 µM (CCRF-CEM): 80%
inhibition at 10 µM (TK-10): 63%
GI50 (TK-10; TK-10, five doses 0.01-100 µM, 48 h): 5630 nM
inhibition at 10 µM (SK-MEL-5): 102%
GI50 (SK-MEL-5; SK-MEL-5, five doses 0.01-100 µM, 48 h): 1240 nM
inhibition at 10 µM (MCF7): 91%
GI50 (MCF7; MCF7, five doses 0.01-100 µM, 48 h): 1770 nM
GI50 (SR; five doses 0.01-100 µM, 48 h): 1470 nM
inhibition at 10 µM (SR): 90%
inhibition at 10 µM (T-47D): 79%
GI50 (T-47D; five doses 0.01-100 µM, 48 h): 1040 nM
inhibition at 10 µM (M14): 59%
GI50 (M14; M14, five doses 0.01-100 µM, 48 h): 3480 nM
IC50 (EGFR^T790M): 586 ± 3 nM
inhibition at 10 µM (SF-295): 76%
GI50 (SF-295; SF-295, five doses 0.01-100 µM, 48 h): 2030 nM
inhibition at 10 µM (K-562): 87%
GI50 (K-562; K-562, five doses 0.01-100 µM, 48 h): 7230 nM
inhibition at 10 µM (SK-OV-3): 66%
GI50 (SK-OV-3; SK-OV-3, five doses 0.01-100 µM, 48 h): 3350 nM
IC50 [1]: 62200 ± 3140 nM
GI50 (ACHN; five doses 0.01-100 µM, 48 h): 1830 nM
inhibition at 10 µM (ACHN): 83%
inhibition at 10 µM (A498): 53%
GI50 (A498; A498, five doses 0.01-100 µM, 48 h): 4540 nM
inhibition at 10 µM (HT29): 65%
GI50 (HT29; five doses 0.01-100 µM, 48 h): 1980 nM
inhibition at 10 µM (HS 578T): < 10%
GI50 (HS 578T; HS 578 T, five doses 0.01-100 µM, 48 h): 7680 nM
inhibition at 10 µM (PC-3): 90%
GI50 (PC-3; PC-3, five doses 0.01-100 µM, 48 h): 4140 nM
inhibition at 10 µM (UACC-62): 73%
GI50 (UACC-62; UACC-62, five doses 0.01-100 µM, 48 h): 1260 nM

CCOC(=O)C1=C(N)N(c2ccc(Cl)cc2)C2=C(C(=O)CC(C)(C)C2)C1c1ccc(Cl)cc1Cl (racemic) [10d, (±)-Ethyl 2-amino-1–(4-chorophenyl)-4–(2,4-dichlorophenyl)-7,7-dimethyl-5-oxo-1-phenyl-1,4,5,6,7,8-hexahydroquinoline-3-carboxylate]
IC50 (EGFR^L858R): 51 ± 1 nM
inhibition at 10 µM (SK-MEL-28): 30%
inhibition at 10 µM (SF-268): 27%
inhibition at 10 µM (LOX IMVI): < 10%
inhibition at 10 µM (RPMI-8226): 85%
inhibition at 10 µM (SW-620): < 10%
inhibition at 10 µM (SF-539): 21%
inhibition at 10 µM (NCI-H460): 49%
inhibition at 10 µM (RXF 393): 38%
inhibition at 10 µM (HOP-92): 55%
inhibition at 10 µM (OVCAR-4): 56%
IC50 (EGFR^WT): 97 ± 5 nM
inhibition at 10 µM (SN 12C): 47%
inhibition at 10 µM (HCT-116): 66%
inhibition at 10 µM (CCRF-CEM): 64%
inhibition at 10 µM (TK-10): 30%
inhibition at 10 µM (SK-MEL-5): 51%
inhibition at 10 µM (MCF7): 70%
inhibition at 10 µM (SR): 75%
inhibition at 10 µM (T-47D): 74%
inhibition at 10 µM (M14): 30%
IC50 (EGFR^T790M): 280 ± 1 nM
inhibition at 10 µM (SF-295): 48%
inhibition at 10 µM (K-562): 79%
inhibition at 10 µM (SK-OV-3): 46%
IC50 [1]: 55500 ± 2570 nM
inhibition at 10 µM (ACHN): 50%
inhibition at 10 µM (A498): 23%
inhibition at 10 µM (HT29): 43%
inhibition at 10 µM (HS 578T): < 10%
inhibition at 10 µM (PC-3): 79%
inhibition at 10 µM (UACC-62): 45%
